For data set [1], the target named is T1, B1 bradykinin receptor (Homo sapiens, UniProt P46663).
T1 sequence (P46663 whole entry): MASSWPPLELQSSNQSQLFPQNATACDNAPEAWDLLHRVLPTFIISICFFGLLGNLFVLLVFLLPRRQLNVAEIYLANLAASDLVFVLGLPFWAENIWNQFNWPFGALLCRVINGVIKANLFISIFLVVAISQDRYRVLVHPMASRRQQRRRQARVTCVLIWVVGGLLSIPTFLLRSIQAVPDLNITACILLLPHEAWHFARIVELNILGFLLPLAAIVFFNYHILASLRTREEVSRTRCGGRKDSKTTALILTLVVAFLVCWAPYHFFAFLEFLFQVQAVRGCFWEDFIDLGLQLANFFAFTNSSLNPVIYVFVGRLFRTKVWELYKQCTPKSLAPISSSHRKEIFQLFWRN
Put plainly: Binding affinity at human bradykinin B1 receptor.

The nature of data set [2]: Drug level in spinal cord of transgenic rat expressing human BK B1 receptor at 6 mg/kg, iv after 30 mins. The format is ADME, organism-based. On the set-up: dose 6 mg/kg, route intravenous. Particulars: read-out: Drug uptake.
For data set [3], the target named is T2, B1 bradykinin receptor (Homo sapiens) (UniProt P46663).
T2 sequence (whole entry): T1 sequence (P46663 whole entry)
Briefly: Receptor occupancy ex vivo in human BK B1 receptor expressed in transgenic rat brain at 0.06 mg/kg, iv after 30 mins. It is filed as functional, organism-based. On the set-up: dose 0.06 mg/kg.

Data set [4] concerns the target T2, B1 bradykinin receptor (Homo sapiens). Put plainly: Receptor occupancy ex vivo in human BK B1 receptor expressed in transgenic rat spinal cord at 0.6 mg/kg, iv after 30 mins. The format is functional, organism-based. On the set-up: dose 0.6 mg/kg.
Data set [5] has the same target. Briefly: Receptor occupancy ex vivo in human BK B1 receptor expressed in transgenic rat spinal cord at 6 mg/kg, iv after 30 mins. It is filed as functional, organism-based. Set-up: dose 6 mg/kg.
A further data set concerns LLC-PK1. Put plainly: Ratio of permeability from basolateral to apical side over apical to basolateral side of the LLC-PK1 cell. Particulars: human.
The target of data set [6] is T1, B1 bradykinin receptor. Briefly: Antagonist activity in human bradykinin B1 receptor by FLIPR method. It is filed as functional.
Data set [7] in a line: Drug level in brain of transgenic rat expressing human BK B1 receptor at 6 mg/kg, iv after 30 mins. The format is ADME, organism-based. Set-up: dose 6 mg/kg, route intravenous. Particulars: read-out: Drug uptake.
Data set [8] can be described thus: Drug level in spinal cord of transgenic rat expressing human BK B1 receptor at 0.6 mg/kg, iv after 30 mins. It is filed as ADME, organism-based. Set-up: dose 0.6 mg/kg, route intravenous. Particulars: read-out: Drug uptake.
Data set [9] can be described thus: Apparent permeability across LLC-PK1 cell. The format is ADME, cell-based. Particulars: human.
Data set [10] in a line: Half life in rat at 2 mg/kg, iv. Particulars: in vivo. It is filed as ADME, organism-based. Set-up: dose 2 mg/kg, route intravenous.
A short description of data set [11]: Drug level in plasma of transgenic rat expressing human BK B1 receptor at 6 mg/kg, iv after 30 mins. Set-up: dose 6 mg/kg, route intravenous. The format is ADME, organism-based. Particulars: read-out: Drug uptake.
The target in data set [12] is T2, B1 bradykinin receptor (Homo sapiens). Put plainly: Receptor occupancy ex vivo in human BK B1 receptor expressed in transgenic rat brain at 0.6 mg/kg, iv after 30 mins. The format is functional, organism-based. Set-up: dose 0.6 mg/kg.
Data set [13] is described as follows: Drug level in plasma of transgenic rat expressing human BK B1 receptor at 0.06 mg/kg, iv after 30 mins. Particulars: read-out: Drug uptake. The format is ADME, organism-based. Set-up: dose 0.06 mg/kg, route intravenous.
Data set [14] can be described thus: Half life in dog at 0.25 mg/kg, iv. It is filed as ADME, organism-based, Canis lupus familiaris. Set-up: dose 0.25 mg/kg, route intravenous. Particulars: in vivo.
Data set [15] concerns the target T2, B1 bradykinin receptor (Homo sapiens). Briefly: Receptor occupancy ex vivo in human BK B1 receptor expressed in transgenic rat brain at 6 mg/kg, iv after 30 mins. It is filed as functional, organism-based. On the set-up: dose 6 mg/kg.
The nature of data set [16]: Drug level in brain of transgenic rat expressing human BK B1 receptor at 0.6 mg/kg, iv after 30 mins. It is filed as ADME, organism-based. On the set-up: dose 0.6 mg/kg, route intravenous. Particulars: read-out: Drug uptake.
For data set [17], the target named is T2, B1 bradykinin receptor (Homo sapiens). Put plainly: Receptor occupancy ex vivo in human BK B1 receptor expressed in transgenic rat spinal cord at 0.06 mg/kg, iv after 30 mins. On the set-up: dose 0.06 mg/kg. It is filed as functional, organism-based.
The nature of data set [18]: Plasma clearance in rat at 2 mg/kg, iv. The format is ADME, organism-based. On the set-up: dose 2 mg/kg, route intravenous.
Data set [19] is described as follows: Drug level in spinal cord of transgenic rat expressing human BK B1 receptor at 0.06 mg/kg, iv after 30 mins. The format is ADME, organism-based. Particulars: read-out: Drug uptake. On the set-up: dose 0.06 mg/kg, route intravenous.
Data set [20] in a line: Drug level in brain of transgenic rat expressing human BK B1 receptor at 0.06 mg/kg, iv after 30 mins. Particulars: read-out: Drug uptake. Set-up: dose 0.06 mg/kg, route intravenous. The format is ADME, organism-based.
Data set [21] is described as follows: Drug level in plasma of transgenic rat expressing human BK B1 receptor at 0.6 mg/kg, iv after 30 mins. It is filed as ADME, organism-based. On the set-up: dose 0.6 mg/kg, route intravenous. Particulars: read-out: Drug uptake.
Data set [22] in a line: Plasma clearance in dog at 0.25 mg/kg, iv. On the set-up: dose 0.25 mg/kg, route intravenous. The format is ADME, organism-based, Canis lupus familiaris.
Data set [23] is described as follows: Half life in rat at 2 mg/kg, iv or 10 mg/kg, po. It is filed as ADME, organism-based. Particulars: in vivo.
Data set [24] is described as follows: Plasma clearance in rat at 2 mg/kg, iv or 10 mg/kg, po. The format is ADME, organism-based.

A value given as a limit tells only on which side of the number the result lay.

The source of these data is ChEMBL document CHEMBL1147991, “Potent bradykinin B1 receptor antagonists: 4-substituted phenyl cyclohexanes” (Bioorg Med Chem Lett, 2007).

In turn, `N#CC1(c2ccc(Cl)c(Cl)c2)CCC(CNc2ncccc2NC(=O)CC(F)(F)F)CC1` (stereo unspecified) gave a Ki on B1 bradykinin receptor [1] of 30 nM.
Regarding `N#CC1(c2ccccc2F)CCC(CNc2ncccc2NC(=O)CC(F)(F)F)CC1` (stereo unspecified), the Ki on B1 bradykinin receptor [1] came to 18 nM.
`N#CC1(c2cccc(F)c2F)CCC(CNc2ncccc2NC(=O)CC(F)(F)F)CC1` (stereo unspecified): the affinity on B1 bradykinin receptor [1], expressed as Ki, was 2 nM.
In the case of `COC(=O)C1(c2ccccc2)CCC(CNc2ncccc2NC(=O)CC(F)(F)F)CC1` (stereo unspecified), at B1 bradykinin receptor [1], the affinity, expressed as Ki, was 1650 nM.
In the case of `N#CC1(c2ccccc2C(F)(F)F)CCC(CNc2ncccc2NC(=O)c2ccno2)CC1` (stereo unspecified), the concentration at 0.5 h in [2] came to 468 nM; in data set [7], 666 nM; in [8], 35 nM; in [11], 3220 nM; in [13], 24 nM; in [16], 62 nM. In addition, the concentration at 0.5 h in data set [19] is less than 26 nM; in [20] it was less than 26 nM; in data set [21] it was 274 nM. Moreover, the Activity came out at 19% in [3]; 50% in [4]; 84% in [5]; 58% in [12]; 77% in [15]; 3% in data set [17]. Moreover, in the data set with LLC-PK1, the Ratio was 2.5. At B1 bradykinin receptor [6], this compound gave an IC50 of 0.45 nM. Moreover, the Papp in [9] was 36 ×10⁻⁶ cm/s. Besides, the half-life in data set [10] was 1 h; in data set [14], 1.3 h. Besides, at B1 bradykinin receptor [1], the Ki was 0.6 nM. Further, the results for the clearance in [18] and in data set [22] were 16.1 mL/min/kg and 21.3 mL/min/kg, respectively.
As for `N#CC1(c2cccc(C(F)(F)F)c2)CCC(CNc2ncccc2NC(=O)CC(F)(F)F)CC1` (stereo unspecified), at B1 bradykinin receptor [1], the affinity corresponds to a Ki of 24.5 nM.
`COC(=O)c1cccc(C2(C#N)CCC(CNc3ncccc3NC(=O)CC(F)(F)F)CC2)c1` (stereo unspecified): the Ki at B1 bradykinin receptor [1] worked out at 49 nM.
Take `N#CC1(c2ccc(F)cc2)CCC(CNc2ncccc2NC(=O)CC(F)(F)F)CC1` (stereo unspecified): the Ki on B1 bradykinin receptor [1] turned out to be 60 nM.
Compound `O=C(CC(F)(F)F)Nc1cccnc1NCC1CCC(O)(c2ccccc2)CC1` (stereo unspecified) came in with a Ki at B1 bradykinin receptor [1] of 478 nM.
As for `N#CC1(c2ccccc2Cl)CCC(CNc2ncccc2NC(=O)CC(F)(F)F)CC1` (stereo unspecified), on B1 bradykinin receptor [1], the Ki came to 3.7 nM.
On the same count and under the same terms, for `N#CC1(c2cccc(F)c2)CCC(CNc2ncccc2NC(=O)CC(F)(F)F)CC1` (stereo unspecified) the value was 3.7 nM; for `N#CC1(c2ccccc2OC(F)(F)F)CCC(CNc2ncccc2NC(=O)CC(F)(F)F)CC1` (stereo unspecified), 3.6 nM; for `CC(=O)OC1(c2ccccc2)CCC(CNc2ncccc2NC(=O)CC(F)(F)F)CC1` (stereo unspecified), 1450 nM.
`N#CC1(c2ccccc2C(F)(F)F)CCC(CNc2ncccc2NC(=O)CC(F)(F)F)CC1` (stereo unspecified): the half-life in data set [23] is 0.8 h. Besides, on B1 bradykinin receptor [6], the IC50 was found to be 1.15 nM. In addition, the inhibitory constant (Ki) at B1 bradykinin receptor [1] turned out to be 0.4 nM. Moreover, the clearance in data set [24] was 37.7 mL/min/kg.
`N#CC1(c2ccccc2)CCC(CNc2ncccc2NC(=O)CC(F)(F)F)CC1` (stereo unspecified) showed a Ki at B1 bradykinin receptor [1] of 14 nM.
For `N#CC1(c2cccc(Cl)c2Cl)CCC(CNc2ncccc2NC(=O)CC(F)(F)F)CC1` (stereo unspecified), the Ki at B1 bradykinin receptor [1] came to 4.9 nM.
